This assay addresses soluble, sperm-specific adenylate cyclase (sAC) (Homo sapiens, UniProt Q96PN6). The experiment in a line: sAC-Assay (HTRF cAMP detection). Format: biochemical. The settings on record: inhibition of the soluble adenylate cyclase. The text has this:
In a suitable buffer system, the soluble, sperm-specific adenylate cyclase catalyzes the reaction of adenosine triphosphate (ATP) to cyclic adenosine monophosphate (cAMP) and pyrophosphate. Free cAMP that is generated in this way is then used in a competitive detection process, in which the binding of a europium kryptate (Eu[K])-labeled anti-cAMP antibody (anti cAMP-Eu[K]-AK) to a cAMP-molecule-labeled, modified allophycocyanine-1 molecule (cAMP-XL665) is prevented. In the absence of exogenic cAMP, after excitation at 335 nm, it results in a fluorescence resonance energy transfer (FRET) between the anti cAMP-Eu[K]-AK (FRET-donor) and the cAMP-XL665 molecule (FRET-acceptor). This process is quantified at different times (time-resolved) based on the emission of FRET-acceptor XL665 (665 nm and 620 nm). A signal drop (measured as a wave ratio; calculation formula: [(E665 nm/E620 nm)×10000]) can be attributed to the presence of cAMP and thus to the activity of sAC.
First, 1.5 μl of the test substance (in 30% DMSO), only 30% DMSO in the solvent controls, is introduced per recess in a 384-hole test plate (polystyrene; 384, NV). […]
After an additional incubation of 90 minutes at room temperature, the HTRF result is measured either on the Packard Discovery or with the RubiStar HTRF measuring device (Delay: 50 μs; Integration time: 400 μs).

soluble, sperm-specific adenylate cyclase (sAC), sequence (Q96PN6 whole entry): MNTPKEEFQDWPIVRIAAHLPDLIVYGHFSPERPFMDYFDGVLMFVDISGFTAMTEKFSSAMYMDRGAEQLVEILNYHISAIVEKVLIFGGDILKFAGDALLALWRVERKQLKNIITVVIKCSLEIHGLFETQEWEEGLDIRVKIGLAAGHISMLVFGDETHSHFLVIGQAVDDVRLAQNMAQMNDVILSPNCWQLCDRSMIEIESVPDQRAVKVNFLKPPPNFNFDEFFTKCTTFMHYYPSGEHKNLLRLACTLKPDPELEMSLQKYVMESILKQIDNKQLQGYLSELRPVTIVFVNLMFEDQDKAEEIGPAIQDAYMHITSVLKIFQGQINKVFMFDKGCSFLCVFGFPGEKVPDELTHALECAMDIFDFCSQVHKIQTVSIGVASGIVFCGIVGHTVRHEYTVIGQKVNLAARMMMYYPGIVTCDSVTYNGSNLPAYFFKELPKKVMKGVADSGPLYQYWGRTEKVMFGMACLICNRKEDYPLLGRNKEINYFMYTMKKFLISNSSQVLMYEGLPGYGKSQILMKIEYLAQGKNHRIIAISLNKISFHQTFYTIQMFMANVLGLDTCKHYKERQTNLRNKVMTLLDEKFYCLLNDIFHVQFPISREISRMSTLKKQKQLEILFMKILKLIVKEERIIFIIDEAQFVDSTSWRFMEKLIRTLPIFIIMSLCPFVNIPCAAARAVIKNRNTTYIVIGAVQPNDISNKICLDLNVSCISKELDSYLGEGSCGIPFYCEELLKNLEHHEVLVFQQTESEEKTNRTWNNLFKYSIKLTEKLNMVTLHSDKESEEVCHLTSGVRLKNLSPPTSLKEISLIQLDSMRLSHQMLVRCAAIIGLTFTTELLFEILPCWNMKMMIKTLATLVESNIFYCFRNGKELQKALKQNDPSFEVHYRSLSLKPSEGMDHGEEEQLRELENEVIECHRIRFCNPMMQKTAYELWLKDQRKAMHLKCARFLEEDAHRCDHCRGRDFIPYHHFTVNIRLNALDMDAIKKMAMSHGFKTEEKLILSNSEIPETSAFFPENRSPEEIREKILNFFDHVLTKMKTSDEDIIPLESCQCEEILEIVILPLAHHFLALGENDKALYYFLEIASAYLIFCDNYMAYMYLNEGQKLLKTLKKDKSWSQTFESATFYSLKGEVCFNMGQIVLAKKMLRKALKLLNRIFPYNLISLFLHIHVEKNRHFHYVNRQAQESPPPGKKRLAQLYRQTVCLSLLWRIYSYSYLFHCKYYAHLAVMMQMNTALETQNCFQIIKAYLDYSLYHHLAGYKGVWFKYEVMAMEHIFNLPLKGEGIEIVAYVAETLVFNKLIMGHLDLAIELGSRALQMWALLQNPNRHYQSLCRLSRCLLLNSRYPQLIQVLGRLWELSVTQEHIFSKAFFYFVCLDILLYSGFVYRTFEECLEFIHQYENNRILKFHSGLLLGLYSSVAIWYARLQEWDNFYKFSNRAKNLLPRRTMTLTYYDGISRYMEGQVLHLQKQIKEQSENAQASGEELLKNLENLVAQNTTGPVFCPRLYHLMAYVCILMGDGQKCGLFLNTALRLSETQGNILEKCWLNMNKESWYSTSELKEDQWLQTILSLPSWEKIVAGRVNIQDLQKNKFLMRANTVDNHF

Consider `CC(C)(C)c1ccc(S(=O)(=O)Nc2ccc3[nH]c(/C=C/C(=O)NCCN4CCOCC4)c(-c4ccccc4)c3c2)cc1`, for which inhibition was half-maximal at 3.5 µM (IC50). In the case of `CC(O)CNC(=O)/C=C/c1[nH]c2ccc(NS(=O)(=O)c3ccc(C(C)(C)C)cc3)cc2c1-c1ccccc1` (racemic) [(±)-(E)-3-[5-(4-tert-Butyl-phenylsulfonylamino)-3-phenyl-1H-indol-2-yl]-N-(2-hydroxy-propyl)-acrylic acid amide] it was 4.4 µM.

The values are drawn from patent publication US7449459B2, “Inhibitors of soluble adenylate cyclase” (Bayer Schering Pharma AG, priority 2006, dated 2008).
